Values joined by “and” are separate entries in the source; they are usually repeats but may differ in a detail not shown here. Equal values may be shown once. Inconclusive results and toxic doses are left out. Cut-off read from the data, not from the text of the source: active = T/C of 150% or more; inactive = T/C below 125%. Square brackets hold non-standard residues; d marks the D form. Peptide text beside a SMILES is read from it. * marks the point of attachment. ξ: configuration not given here. ξF = NC(Cc1ccccc1)C(=O)O; Cbz = O=C(OCc1ccccc1)*; CH2Cl = ClC*
Tested on: L1210 leukemia ip in BDF1 mice, survival T/C
Test: NCI In Vivo Anticancer Drug Screen. Data for tumor model L1210 Leukemia (intraperitoneal) in B6D2F1 (BDF1) mice
Conditions: endpoint: mean survival time, higher = longer survival
Summary of the method: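 Mice bearing the transplanted tumor received compound or vehicle. Survival of the treated group was divided by that of the vehicle-treated control group to give the ratio.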

[1] = dose: 50.0 mg/kg/injection, schedule: Q01DX001 (ip), vehicle: saline
[2] = dose: 100.0 mg/kg/injection, schedule: Q01DX001 (ip), vehicle: saline
[3] = dose: 200.0 mg/kg/injection, schedule: Q01DX001 (ip), vehicle: saline
[4] = dose: 50.0 mg/kg/injection, schedule: Q01DX009 (ip), vehicle: saline with Tween-80
[5] = dose: 100.0 mg/kg/injection, schedule: Q01DX009 (ip), vehicle: saline with Tween-80
[6] = dose: 200.0 mg/kg/injection, schedule: Q01DX009 (ip), vehicle: saline with Tween-80
[7] = dose: 100.0 mg/kg/injection, schedule: Q04DX003 (ip), vehicle: saline with Tween-80
[8] = dose: 200.0 mg/kg/injection, schedule: Q04DX003 (ip), vehicle: saline with Tween-80
[9] = dose: 400.0 mg/kg/injection, schedule: Q04DX003 (ip), vehicle: saline with Tween-80
[10] = dose: 100.0 mg/kg/injection, schedule: Q01DX009 (ip), vehicle: Klucel (hydroxypropylcellulose) (HPC)
[11] = dose: 200.0 mg/kg/injection, schedule: Q01DX009 (ip), vehicle: Klucel (hydroxypropylcellulose) (HPC)
[12] = dose: 400.0 mg/kg/injection, schedule: Q01DX009 (ip), vehicle: Klucel (hydroxypropylcellulose) (HPC)
[13] = dose: 100.0 mg/kg/injection, schedule: Q01DX009 (ip), vehicle: saline
[14] = dose: 200.0 mg/kg/injection, schedule: Q01DX009 (ip), vehicle: saline
[15] = dose: 25.0 mg/kg/injection, schedule: Q01DX009 (ip), vehicle: Klucel (hydroxypropylcellulose) (HPC)
[16] = dose: 50.0 mg/kg/injection, schedule: Q01DX009 (ip), vehicle: Klucel (hydroxypropylcellulose) (HPC)
[17] = dose: 100.0 mg/kg/injection, schedule: Q04DX003 (ip), vehicle: Klucel (hydroxypropylcellulose) (HPC)
[18] = dose: 200.0 mg/kg/injection, schedule: Q04DX003 (ip), vehicle: Klucel (hydroxypropylcellulose) (HPC)
[19] = dose: 400.0 mg/kg/injection, schedule: Q04DX003 (ip), vehicle: Klucel (hydroxypropylcellulose) (HPC)

Measured: T/C

Cc1cc(/C=N/N=c2\[nH][nH]/c(=N\N=C\c3cc(C)n(-c4ccccc4)c3C)c3ccccc23)c(C)n1-c1ccccc1
inactive: [1] 97 % of control | [2] 97 % of control | [3] 92 % of control | dose: 400.0 mg/kg/injection, schedule: Q01DX001 (ip), vehicle: saline 103 % of control

O=C1OC(=O)C2C1C1C=CC2C12CC2 (configuration not stated)
inactive: [4] 97 % of control | [5] 102 % of control | [6] 105 % of control

Cc1cc(=O)n(-c2ccccc2)n1C.[Cl-].[Cl-].[Cl-].[Cl-].[Pt+2]
inactive: [7] 97 % of control | [8] 103 % of control | [9] 105 % of control

CCCCC(=O)NC(=O)c1ccccc1
inactive: [5] 96 % of control | [7] 101 % of control | [6] 96 % of control | [8] 92 % of control | dose: 400.0 mg/kg/injection, schedule: Q01DX009 (ip), vehicle: saline with Tween-80 93 % of control | [9] 103 % of control

C[N+](C)(C)CC(O)CCl (configuration not stated)
inactive: [2] 95 % of control | [3] 102 % of control

S=c1cccc[nH]1.[Pb]
inactive: dose: 100.0 mg/kg/injection, schedule: Q04DX002 (ip), vehicle: gum acacia 103 % of control | dose: 200.0 mg/kg/injection, schedule: Q04DX002 (ip), vehicle: gum acacia 100 % of control

O=C(NCCc1nc(-c2nc(C(=O)O)cs2)cs1)c1ccccc1
inactive: [7] 103 % of control | [8] 94 % of control | [9] 92 % of control

C#CCOS(C)(=O)=O
inactive: dose: 10.0 mg/kg/injection, schedule: Q01DX009 (ip), vehicle: saline 108 % of control | dose: 10.0 mg/kg/injection, schedule: Q04DX002 (ip), vehicle: saline 107 % of control | dose: 20.0 mg/kg/injection, schedule: Q01DX009 (ip), vehicle: saline 124 % of control | dose: 20.0 mg/kg/injection, schedule: Q04DX002 (ip), vehicle: saline 103 % of control | dose: 40.0 mg/kg/injection, schedule: Q04DX002 (ip), vehicle: saline 103 % of control

O=C(O)c1ccccc1C(c1ccccc1)c1ccccc1
inactive: [7] 98 % of control | [8] 93 % of control | [9] 98 % of control

CC(C)(C)NC(=O)C1C2C=CC(CC2)C1C(=O)NC(C)(C)C (configuration not stated)
inactive: [7] 100 % of control | [8] 96 % of control | [9] 92 % of control

O=[N+]([O-])/C=C/c1ccc(O)cc1
inactive: dose: 50.0 mg/kg/injection, schedule: Q01DX015 (ip), vehicle: saline 97 % of control | dose: 50.0 mg/kg/injection, schedule: Q04DX003 (ip), vehicle: acetone 96 % of control

CCOC(=O)c1ccc(Nc2sc(C(=O)c3cccc([N+](=O)[O-])c3)c(N)c2C#N)cc1
inactive: dose: 100.0 mg/kg/injection, schedule: Q04DX002 (ip), vehicle: Klucel (hydroxypropylcellulose) (HPC) 101 % of control | dose: 200.0 mg/kg/injection, schedule: Q04DX002 (ip), vehicle: Klucel (hydroxypropylcellulose) (HPC) 92 % of control | dose: 400.0 mg/kg/injection, schedule: Q04DX002 (ip), vehicle: Klucel (hydroxypropylcellulose) (HPC) 92 % of control

CC1(C)OC2COC(c3[nH]nc(C(N)=O)c3C(=O)NN)C2O1 (configuration not stated)
inactive: dose: 100.0 mg/kg/injection, schedule: Q01DX005 (ip), vehicle: saline 103 % of control | dose: 200.0 mg/kg/injection, schedule: Q01DX005 (ip), vehicle: saline 97 % of control

C(=N\Nc1nc2ccccc2s1)/c1ccccc1
inactive: [10] 95 % of control | [11] 102 % of control | [12] 100 % of control

c1ccc(C2CCCCCC2)cc1
inactive: [13] 104 % of control | [14] 95 % of control | dose: 400.0 mg/kg/injection, schedule: Q01DX009 (ip), vehicle: saline 90 % of control

C/C=C/c1ccc2ccc[n+](C)c2c1O
inactive: dose: 25.0 mg/kg/injection, schedule: Q04DX003 (ip), vehicle: saline 94 % of control | dose: 50.0 mg/kg/injection, schedule: Q01DX001 (ip), vehicle: carboxymethylcellulose (CMC) 103 % of control | dose: 50.0 mg/kg/injection, schedule: Q04DX003 (ip), vehicle: saline 98 % of control | dose: 100.0 mg/kg/injection, schedule: Q01DX001 (ip), vehicle: carboxymethylcellulose (CMC) 95 % of control | dose: 100.0 mg/kg/injection, schedule: Q04DX003 (ip), vehicle: saline 94 % of control

ClCC[n+]1ccc(-c2cc[n+](CCCl)cc2)cc1
inactive: dose: 156.0 micrograms/kg/injection, schedule: Q01DX Z (ip), vehicle: saline 110 % of control | dose: 313.0 micrograms/kg/injection, schedule: Q01DX Z (ip), vehicle: saline 100 % of control | dose: 625.0 micrograms/kg/injection, schedule: Q01DX Z (ip), vehicle: saline 98 % of control | dose: 1250.0 micrograms/kg/injection, schedule: Q01DX Z (ip), vehicle: saline 98 % of control

N/C(=N\O)c1ccncc1
inactive: [13] 94 % of control | [14] 96 % of control

CCOC(=O)/C(=C\c1ccccc1)P(=O)(OCC)c1ccccc1 (configuration not stated)
inactive: [15] 91 % of control | [16] 92 % of control | [10] 96 % of control | [17] 95 % of control | [18] 96 % of control

Cc1[nH][nH]c(=O)c1N=Nc1ccccc1
inactive: [16] 94 % of control | [10] 98 % of control | [11] 98 % of control

O=C(O)c1cc(S(=O)(=O)F)c(Cl)cc1Cl
inactive: dose: 25.0 mg/kg/injection, schedule: Q01DX009 (ip), vehicle: saline with Tween-80 102 % of control | [4] 103 % of control | [5] 100 % of control and 101 % of control

Cc1cc(C)c(C[N+](C)(C)C)c(C)c1
inactive: [1] 108 % of control | [2] 104 % of control

O=C(CNC(=O)OCc1ccccc1)NCC(=O)NC(Cc1ccccc1)C(=O)CCl (stereo not drawn) (Cbz-Gly-Gly-[ξF]-CH2Cl)
inactive: dose: 12.0 mg/kg/injection, schedule: Q01DX001 (ip), vehicle: Klucel (hydroxypropylcellulose) (HPC) 106 % of control | dose: 25.0 mg/kg/injection, schedule: Q01DX001 (ip), vehicle: Klucel (hydroxypropylcellulose) (HPC) 97 % of control | dose: 25.0 mg/kg/injection, schedule: Q04DX003 (ip), vehicle: Klucel (hydroxypropylcellulose) (HPC) 98 % of control | dose: 50.0 mg/kg/injection, schedule: Q01DX001 (ip), vehicle: Klucel (hydroxypropylcellulose) (HPC) 108 % of control | dose: 50.0 mg/kg/injection, schedule: Q04DX003 (ip), vehicle: Klucel (hydroxypropylcellulose) (HPC) 98 % of control | [17] 104 % of control

CCc1ccccc1NC(=O)SCCSC(=O)Nc1ccccc1CC
inactive: [15] 91 % of control | [16] 102 % of control | [10] 96 % of control and 87 % of control | [12] 104 % of control

CCC(C)(NC(N)=O)c1ccccc1 (configuration not stated)
inactive: [2] 101 % of control | [3] 104 % of control

Nc1ncc(CNc2ccc(C(=O)O)cc2)c(N)n1
inactive: [2] 103 % of control | [3] 103 % of control

CN(N=O)C(=O)NC1C=CCCC1 (configuration not stated)
inactive: dose: 12.5 mg/kg/injection, schedule: Q01DX001 (ip), vehicle: other 104 % of control | dose: 25.0 mg/kg/injection, schedule: Q01DX001 (ip), vehicle: other 95 % of control | dose: 50.0 mg/kg/injection, schedule: Q01DX001 (ip), vehicle: other 97 % of control | dose: 100.0 mg/kg/injection, schedule: Q01DX001 (ip), vehicle: other 96 % of control | dose: 200.0 mg/kg/injection, schedule: Q01DX001 (ip), vehicle: other 104 % of control

O=C(OC1CC2CC1C1CSCC21)c1ccc([N+](=O)[O-])cc1 (configuration not stated)
inactive: [10] 101 % of control | [17] 105 % of control | [11] 103 % of control | [18] 105 % of control | [12] 103 % of control | [19] 97 % of control

C=CCOC(=O)C1c2ccccc2Cc2ccccc21
inactive: [7] 97 % of control | [8] 97 % of control | [9] 95 % of control

c1ccc2c(c1)ccc1ncccc12
inactive: [17] 103 % of control | [18] 102 % of control | [19] 101 % of control

On1ccccc1=S
inactive: dose: 6.25 mg/kg/injection, schedule: Q04DX002 (ip), vehicle: saline with Tween-80 100 % of control | dose: 12.5 mg/kg/injection, schedule: Q04DX002 (ip), vehicle: saline with Tween-80 111 % of control | dose: 25.0 mg/kg/injection, schedule: Q04DX002 (ip), vehicle: saline with Tween-80 100 % of control

NC(=S)NN=C1CCC1
inactive: [1] 98 % of control | [2] 93 % of control and 91 % of control

From PubChem BioAssay AID248 (DTP/NCI, 2004)
